{"source": "patent US12060347B2", "about": "(BRISTOL-MYERS SQUIBB COMPANY, priority 2016, dated 2024)", "data": [{"molecular_target": "T1, human PAR4 (Homo sapiens, UniProt Q96RI0)", "T1 construct": "expressed in transfected cells; host or cells: HEK293 PAR4 Clone 1.2A (BMS Arctic ID 383940)", "T1 sequence (Q96RI0 18-385)": "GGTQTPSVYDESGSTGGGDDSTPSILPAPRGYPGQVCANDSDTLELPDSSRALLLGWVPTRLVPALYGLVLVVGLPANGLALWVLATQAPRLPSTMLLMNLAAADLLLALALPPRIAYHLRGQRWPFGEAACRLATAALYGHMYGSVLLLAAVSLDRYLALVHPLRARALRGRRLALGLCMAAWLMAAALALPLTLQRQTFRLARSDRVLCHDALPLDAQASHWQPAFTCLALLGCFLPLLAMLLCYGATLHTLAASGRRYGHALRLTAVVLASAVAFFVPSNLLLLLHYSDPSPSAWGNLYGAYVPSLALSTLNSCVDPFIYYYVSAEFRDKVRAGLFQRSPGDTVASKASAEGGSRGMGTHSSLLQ", "assay": "PAR4 FLIPR assay: antagonism of agonist-peptide-induced calcium mobilization in PAR4-expressing HEK293 cells", "format": "cell-based", "settings": "H-Ala-Phe(4-F)-[…]NH2-induced intracellular calcium mobilization, 11-point curves", "units": {"IC50": "nM"}, "values": [{"compound": "COc1cnc2c(-c3nc4cc(F)c(O[C@@H](C)[C@@H](C)OC(=O)Nc5cnc(O[C@@H](C)CO)nc5)nc4s3)cc(C)cc2n1", "note": "[Example 724, (2R,3S)-3-((6-fluoro-2-(2-methoxy-7-methylquinoxalin-5-yl)thiazolo[5,4-b]pyridin-5-yl)oxy)butan-2-yl (2-(((S)-1-hydroxypropan-2-yl)oxy)pyrimidin-5-yl)carbamate]", "IC50": 2.1}, {"compound": "COc1cnc2c(-c3nc4cc(F)c(O[C@@H](C)[C@@H](C)OC(=O)Nc5ccc(OCCO)nc5)nc4s3)cc(C)cc2n1", "note": "[Example 725, (2R,3S)-3-((6-fluoro-2-(2-methoxy-7-methylquinoxalin-5-yl)thiazolo[5,4-b]pyridin-5-yl)oxy)butan-2-yl (6-(2-hydroxyethoxy)pyridin-3-yl)carbamate]", "IC50": 0.8}, {"compound": "COc1cnc2c(-c3nc4cc(F)c(O[C@@H](C)[C@@H](C)OC(=O)Nc5ccc(OCC(F)(F)CO)nc5)nc4s3)cc(C)cc2n1", "note": "[Example 726, (2R,3S)-3-((6-fluoro-2-(2-methoxy-7-methylquinoxalin-5-yl)thiazolo[5,4-b]pyridin-5-yl)oxy)butan-2-yl (6-(2,2-difluoro-3-hydroxypropoxy)pyridin-3-yl)carbamate]", "IC50": 1.2}, {"compound": "COc1cnc2c(-c3nc4cc(F)c(O[C@@H](C)[C@@H](C)OC(=O)Nc5ccnc(OCCC(C)(C)O)c5)nc4s3)cc(C)cc2n1", "note": "[Example 727, (2R,3S)-3-((6-fluoro-2-(2-methoxy-7-methylquinoxalin-5-yl)thiazolo[5,4-b]pyridin-5-yl)oxy)butan-2-yl (2-(3-hydroxy-3-methylbutoxy)pyridin-4-yl)carbamate]", "IC50": 1.7}, {"compound": "COc1cnc2c(-c3nc4cc(F)c(O[C@@H](C)[C@@H](C)OC(=O)Nc5cnc(OC[C@H](C)O)nc5)nc4s3)cc(C)cc2n1", "note": "[Example 728, (2R,3S)-3-((6-fluoro-2-(2-methoxy-7-methylquinoxalin-5-yl)thiazolo[5,4-b]pyridin-5-yl)oxy)butan-2-yl (2-((S)-2-hydroxypropoxy)pyrimidin-5-yl)carbamate]", "IC50": 2.4}, {"compound": "COc1cnc2c(-c3nc4cc(F)c(O[C@@H](C)[C@@H](C)OC(=O)Nc5cnc(OC[C@@H](C)O)nc5)nc4s3)cc(C)cc2n1", "note": "[Example 729, (2R,3S)-3-((6-fluoro-2-(2-methoxy-7-methylquinoxalin-5-yl)thiazolo[5,4-b]pyridin-5-yl)oxy)butan-2-yl (2-((R)-2-hydroxypropoxy)pyrimidin-5-yl)carbamate]", "IC50": 2.8}, {"compound": "COc1cnc2c(-c3nc4cc(F)c(O[C@@H](C)[C@@H](C)OC(=O)Nc5cnc(OCCC(C)(C)O)nc5)nc4s3)cc(C)cc2n1", "note": "[Example 730, (2R,3S)-3-((6-fluoro-2-(2-methoxy-7-methylquinoxalin-5-yl)thiazolo[5,4-b]pyridin-5-yl)oxy)butan-2-yl (2-(3-hydroxy-3-methylbutoxy)pyrimidin-5-yl)carbamate]", "IC50": 13}, {"compound": "COc1cnc2c(-c3nc4cc(F)c(O[C@@H](C)[C@@H](C)OC(=O)Nc5cnc(C)nc5)nc4s3)cc(C)cc2n1", "note": "[Example 731, (2R,3S)-3-((6-fluoro-2-(2-methoxy-7-methylquinoxalin-5-yl)thiazolo[5,4-b]pyridin-5-yl)oxy)butan-2-yl (2-methylpyrimidin-5-yl)carbamate]", "IC50": 0.9}, {"compound": "COc1cnc2c(-c3nc4c(C)cc(OC[C@@H](C)OC(=O)Nc5cccnc5)nc4s3)cc(C)cc2n1", "note": "[Example 733, (R)-1-((2-(2-methoxy-7-methylquinoxalin-5-yl)-7-methylthiazolo[5,4-b]pyridin-5-yl)oxy)propan-2-yl pyridin-3-ylcarbamate]", "IC50": 1.1}, {"compound": "COc1cnc2c(-c3nc4c(C)cc(OC[C@@H](C)OC(=O)Nc5cnc(F)c(C)c5)nc4s3)cc(C)cc2n1", "note": "[Example 734, (R)-1-((2-(2-methoxy-7-methylquinoxalin-5-yl)-7-methylthiazolo[5,4-b]pyridin-5-yl)oxy) propan-2-yl (6-fluoro-5-methylpyridin-3-yl)carbamate]", "IC50": 1}]}]}
